{"source": "patent US20110183941A1", "about": "(priority 2010, published 2011)", "origin": "cited, not measured here", "settings": "at room temperature"}
{"smiles": "O=C(O)CNCP(=O)(O)O", "note": "[glyphosate]", "values": [{"measurement": "solubility", "result": 1.5, "unit": "%"}]}
